What was measured:
TRPML1 = TRPML1 (Homo sapiens, UniProt Q9GZU1); test: Calcium flux in HEK293 overexpressing TRPML1 plasma membrane variant (FLIPR, Calcium 6 dye); assay type: cell-based; details: HEK293/TRPML1-PM clone A5 cells; 4-parameter logistic fit; read-out: TRPML1 calcium flux (FLIPR) dose response: EC50
Procedure, shortened: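 HEK293 clone expressing plasma-membrane-targeted TRPML1 (N- and C-terminal dileucine motifs deleted), loaded with Calcium 6 dye for 2 h at 37 °C in HBSS/20 mM HEPES pH 7.4. Fluorescence recorded 10 s baseline then 170 s after compound addition. Max-minus-min response over baseline fitted by 4-parameter logistic for EC50.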

TFEB = TFEB translocation assay in HeLa cells (nuclear to cytoplasmic TFEB ratio, high-content imaging); assay type: cell-based; details: Homo sapiens, 1.5 h, 90 mins incubation at 37° C., ratio of nuclear to cytoplasmic TFEB
Protocol: Example B2. TFEB Translocation Assay
Rabbit TFEB antibody, Cell Signaling Technology #4240S
PFA 16% MeOH-free, Election Microscopy Sciences #50-980-487
HCS CellMask Deep Red, ThermoFisher Scientific #H32721
Plates: Perkin Elmer Phenoplate #605730 black optically clear, tissue culture treated 384-well plate
Example B2.2 Method, Day 1: Cells Seeded in 384WP
Cells were seeded in the afternoon. The outer one row of the plate was not used to avoid outer well edge effects.
HeLa cells were detached using trypsin, and the cells were counted using a cell counter.
4000 HeLa cells were seeded per well in […] growth media (DMEM with 10% FBS, 1 mM sodium pyruvate and Pen-Strep).
Example B2.3 Method, Day 2: Assay with TRPML1 Compounds+Staining
Compounds were added to cells using a Tecan D300e dispenser.
Cells were incubated for 90 mins at 37° C. with the compounds (compound range: 80 nM-[…] (2× step dilution—8 dilution steps, 3 replicates per condition)
The cells were fixed by adding 16.5 μL of 16% PFA (4% final) and incubating for 15 min at room temperature.
The cells were washed with 3× in PBS-TX (PBS+0.1% Triton X-100)−1×100 μL followed by 2×50 μL.
The cells were blocked and permeabilized in 30 μL of blocking buffer (PBS-TX+5% goat serum) for 1 h.
The cells were incubated with TFEB antibody (1:200, CST 4240S) in 30 μL blocking buffer overnight at 4° C. The plates were kept damp to avoid evaporation.
Example B2.4 Method, Day 3: Staining+Imaging
The cells were washed 3× in PBS-TX—3×100 μL with a Biotek EL406 washer.
The cells were incubated with Goat anti-Rb Alexa-Fluor 488 (1:2000), cell mask (1:10,000) and Hoechst (1:10,000) in 30 μL blocking buffer for 1 h at room temperature. The solution was dispensed using a 5 μL peristaltic cassette (EL406).
The cells were washed 3× in PBS-TX—3×100 μL with a EL406 washer, then […] PBS was dispensed using a 5 μL peristaltic cassette (EL406).
The cells were imaged on an Operetta CLS High-content imaging system using a 20× water immersion objective (NA 1.0) the same day.
Image analysis was performed using Harmony V4.9 (Perkin Elmer). Briefly, nuclei were segmented from background-corrected images using Hoechst intensity, and cell body segmented using HCS CellMask DeepRed. A sliding parabola filter was applied to the AlexaFluor 488 channel (TFEB), before sum pixel intensity in the nuclear and cytoplasmic regions was calculated. A ratio of nuclear to cytoplasmic TFEB was used to define TFEB translocation from the cytosolic to nuclear compartment. The EC50 values derived by fitting the data to a sigmoidal dose response curve using Prism 9 (Graphpad).

Sequence of TRPML1 (Q9GZU1 17-572 limits assumed): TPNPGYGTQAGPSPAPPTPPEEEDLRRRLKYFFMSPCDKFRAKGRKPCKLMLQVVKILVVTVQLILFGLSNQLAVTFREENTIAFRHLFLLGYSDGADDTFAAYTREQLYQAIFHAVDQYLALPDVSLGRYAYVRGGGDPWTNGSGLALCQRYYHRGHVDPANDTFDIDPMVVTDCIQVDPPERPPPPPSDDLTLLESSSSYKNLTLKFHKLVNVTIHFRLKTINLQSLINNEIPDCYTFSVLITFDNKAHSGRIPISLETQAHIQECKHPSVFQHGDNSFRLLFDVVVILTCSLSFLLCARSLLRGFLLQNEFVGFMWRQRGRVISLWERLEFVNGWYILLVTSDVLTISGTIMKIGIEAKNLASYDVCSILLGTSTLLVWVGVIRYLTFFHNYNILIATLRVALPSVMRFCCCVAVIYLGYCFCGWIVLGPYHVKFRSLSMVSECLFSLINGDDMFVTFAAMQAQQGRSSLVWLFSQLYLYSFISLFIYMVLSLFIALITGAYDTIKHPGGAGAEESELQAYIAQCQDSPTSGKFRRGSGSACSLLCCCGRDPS

| SMILES | EC50 (TRPML1) | EC50 (TFEB; HeLa) | EC50 (TFEB) |
| --- | --- | --- | --- |
| CC(C)CCN(C)c1ccccc1NS(=O)(=O)c1ccc(S(=O)(=O)N(C)C)cc1 [Compound 6, N1-(2-(isopentyl(methyl)amino)phenyl)-N4,N4-dimethylbenzene-1,4-disulfonamide] | 290 nM | 4860 nM |  |
| CN(CC1(C)CCOCC1)c1ccccc1NS(=O)(=O)c1ccc(S(=O)(=O)N(C)C)cc1 [Compound 10, N1,N1-dimethyl-N4-(2-(methyl((4-methyltetrahydro-2H-pyran-4-yl)methyl)amino)phenyl)benzene-1,4-disulfonamide] | 870 nM | 2340 nM |  |
| CN(Cc1cscn1)c1c(Cl)cccc1NS(=O)(=O)c1ccc(S(=O)(=O)N(C)C)cc1 [Compound 64, N1-(3-chloro-2-(methyl(thiazol-4-ylmethyl)amino)phenyl)-N4,N4-dimethylbenzene-1,4-disulfonamide] | 453 nM | 1390 nM |  |
| CN(c1ccc(C(F)(F)F)cc1NS(=O)(=O)c1ccc(S(=O)(=O)N(C)C)cc1)C1CCCCC1 [Compound 110, N1-(2-(cyclohexyl(methyl)amino)-5-(trifluoromethyl)phenyl)-N4,N4-dimethylbenzene-1,4-disulfonamide] | 256 nM |  | 246 nM |
| CN(c1c(F)cccc1NS(=O)(=O)c1ccc(S(=O)(=O)N(C)C)cc1)C1CCCCC1 [Compound 12, N1-(2-(cyclohexyl(methyl)amino)-3-fluorophenyl)-N4,N4-dimethylbenzene-1,4-disulfonamide] | 720 nM | < 80 nM |  |
| CN(Cc1ccsc1)c1ccccc1NS(=O)(=O)c1ccc(S(=O)(=O)N(C)C)cc1 [Compound 13, N1,N1-dimethyl-N4-(2-(methyl(thiophen-3-ylmethyl)amino)phenyl)benzene-1,4-disulfonamide] | 670 nM | 1350 nM |  |
| CN(C)S(=O)(=O)c1ccc(S(=O)(=O)Nc2ccccc2N(C)[C@H]2CC[C@H](C)CC2)cc1 [Compound 28, N1,N1-dimethyl-N4-(2-(methyl((1r,4r)-4-methylcyclohexyl)amino)phenyl)benzene-1,4-disulfonamide] | 350 nM | 1100 nM |  |
| CN(c1ccccc1NS(=O)(=O)c1ccc(S(=O)(=O)N(C)C)cc1)C1CCC(C)(C)CC1 [Compound 29, N1-(2-((4,4-dimethylcyclohexyl)(methyl)amino)phenyl)-N4,N4-dimethylbenzene-1,4-disulfonamide] | 510 nM | 2270 nM |  |
| CN(Cc1cncs1)c1ccccc1NS(=O)(=O)c1ccc(S(=O)(=O)N(C)C)cc1 [Compound 55, N1,N1-dimethyl-N4-(2-(methyl(thiazol-5-ylmethyl)amino)phenyl)benzene-1,4-disulfonamide] | 250 nM | 870 nM |  |
| CN(CC1CC1)c1ccccc1NS(=O)(=O)c1ccc(S(=O)(=O)N(C)C)cc1 [Compound 14, N1-(2-((cyclopropylmethyl) (methyl)amino)phenyl)-N4,N4-dimethylbenzene-1,4-disulfonamide] | 1560 nM | 2030 nM |  |
| CN(CC1(F)CCCCC1)c1ccccc1NS(=O)(=O)c1ccc(S(=O)(=O)N(C)C)cc1 [Compound 96, N1-(2-(((1-fluorocyclohexyl)methyl)(methyl)amino)phenyl)-N4,N4-dimethylbenzene-1,4-disulfonamide] | 247 nM |  | 140 nM |
| CN(c1ccc(C#N)cc1NS(=O)(=O)c1ccc(S(=O)(=O)N(C)C)cc1)C1CCCCC1 [Compound 89, N1-(5-cyano-2-(cyclohexyl(methyl)amino)phenyl)-N4,N4-dimethylbenzene-1,4-disulfonamide] | 681 nM |  | 2400 nM |

The next lines start with results.

| EC50 (TRPML1) | EC50 (TFEB; HeLa) | SMILES | EC50 (TFEB) |
| --- | --- | --- | --- |
| 319 nM | 396 nM | CN(CC12CC(C)(C1)C2)c1ccccc1NS(=O)(=O)c1ccc(S(=O)(=O)N(C)C)cc1 [Compound 65, N1,N1-dimethyl-N4-(2-(methyl((3-methylbicyclo[1.1.1]pentan-1-yl)methyl)amino)phenyl)benzene-1,4-disulfonamide] |  |
| 857 nM | 649 nM | CN(CC1(F)CCCC1)c1ccccc1NS(=O)(=O)c1ccc(S(=O)(=O)N(C)C)cc1 [Compound 93, N1-(2-(((1-fluorocyclopentyl)methyl)(methyl)amino)phenyl)-N4,N4-dimethylbenzene-1,4-disulfonamide] |  |
| 472 nM | 705 nM | CCN(CC)c1c(Cl)cccc1NS(=O)(=O)c1ccc(S(=O)(=O)N(C)C)cc1 [Compound 77, N1-(3-chloro-2-(diethylamino)phenyl)-N4,N4-dimethylbenzene-1,4-disulfonamide] |  |
| 812 nM | 3290 nM | CN(c1ccccc1NS(=O)(=O)c1ccc(S(=O)(=O)N(C)C)cc1)C1CCOC(C)(C)C1 (stereo not shown) [Compound 111, N1-(2-((2,2-dimethyltetrahydro-2H-pyran-4-yl)(methyl)amino)phenyl)-N4,N4-dimethylbenzene-1,4-disulfonamide] |  |
| 353 nM | 83.7 nM | Cc1ccc(N(C)C2CCCCC2)c(NS(=O)(=O)c2ccc(S(=O)(=O)N(C)C)cc2)c1 [Compound 117, N1-(2-(cyclohexyl(methyl)amino)-5-methylphenyl)-N4,N4-dimethylbenzene-1,4-disulfonamide] |  |
| 347 nM | 516 nM | CN(c1ccccc1NS(=O)(=O)c1ccc(S(=O)(=O)N(C)C)cc1)C1CCOC1(C)C (stereo not shown) [Compound 97, N1-(2-((2,2-dimethyltetrahydro-furan-3-yl)(methyl)amino)phenyl)-N4,N4-dimethylbenzene-1,4-disulfonamide] |  |
| 1100 nM | 758 nM | CN(c1ccccc1NS(=O)(=O)c1ccc(S(=O)(=O)N(C)C)cc1)C12CC(C)(C1)C2 [Compound 115, N1,N1-dimethyl-N4-(2-(methyl(3-methylbicyclo[1.1.1]pentan-1-yl)amino)phenyl) benzene-1,4-disulfonamide] |  |
| 1340 nM | 6960 nM | CN(Cc1cncs1)c1c(F)cccc1NS(=O)(=O)c1ccc(S(=O)(=O)N(C)C)cc1 [Compound 70, N1-(3-Fluoro-2-(methyl(thiazol-5-ylmethyl)amino)phenyl)-N4,N4-dimethylbenzene-1,4-disulfonamide] |  |
| 823 nM | 674 nM | CN(c1ccccc1NS(=O)(=O)c1ccc(S(=O)(=O)N(C)C)cc1)C1CCOC2(CCC2)C1 (stereo not shown) [Compound 87, N1,N1-dimethyl-N4-(2-(methyl(5-oxaspiro[3.5]nonan-8-yl)amino)phenyl)benzene-1,4-disulfonamide] |  |
| 818 nM | 4040 nM | Cc1cccc(NS(=O)(=O)c2ccc(S(=O)(=O)N(C)C)cc2)c1N(C)Cc1cscn1 [Compound 71, N1,N1-dimethyl-N4-(3-methyl-2-(methyl(thiazol-4-ylmethyl)amino)phenyl)benzene-1,4-disulfonamide] |  |
| 77.2 nM | 199 nM | CN(c1c(C#N)cccc1NS(=O)(=O)c1ccc(S(=O)(=O)N(C)C)cc1)C1CCCCC1 [Compound 91, N1-(3-cyano-2-(cyclohexyl(methyl)amino)phenyl)-N4,N4-dimethylbenzene-1,4-disulfonamide] |  |
| 421 nM | 339 nM | CN(CC1CCC1)c1c(Cl)cccc1NS(=O)(=O)c1ccc(S(=O)(=O)N(C)C)cc1 [Compound 69, N1-(3-chloro-2-((cyclobutylmethyl)(methyl)amino)phenyl)-N4,N4-dimethylbenzene-1,4-disulfonamide] |  |
| 461 nM | 323 nM | CN(C)S(=O)(=O)c1ccc(S(=O)(=O)Nc2ccccc2N(CC(F)(F)F)C2CCCCC2)cc1 [Compound 81, N1-(2-(cyclohexyl(2,2,2-trifluoroethyl)amino)phenyl)-N4,N4-dimethylbenzene-1,4-disulfonamide] |  |
| 567 nM | 664 nM | CN(C)S(=O)(=O)c1ccc(S(=O)(=O)Nc2ccccc2N(CC2COC2)C2CCCCC2)cc1 [Compound 84, N1-(2-(Cyclohexyl(oxetan-3-ylmethyl)amino)phenyl)-N4,N4-dimethylbenzene-1,4-disulfonamide] |  |
